Common to all, as to type: in vivo
Assay [1] concerns Alopecurus myosuroides (ALOMY). As to the kind of experiment: Pre-emergence herbicidal activity, glasshouse pot test. Particulars: Alopecurus myosuroides, 312 h; Rate 250 g/ha; pre-emergence spray; evaluated after 13 days; read-out: Pre-emergence activity ALOMY (100=total damage to plant; 0=no damage to plant). Put shortly:
(§1)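 Sow seeds in standard soil in pots; grow 1 day (pre-emergence) or 8 days (post-emergence) at 24/16° C, 14 h light, 65% humidity. Spray aqueous solution from acetone/water 50:50 + 0.5% Tween 20 formulation. Grow on, watering twice daily; score damage 0–100 after 13 days.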

For assay [2], the system named is Avena fatua (AVEFA). The assay is described as above. Conditions: Avena fatua, 312 h; Rate 250 g/ha; pre-emergence spray; evaluated after 13 days; read-out: Pre-emergence activity AVEFA (100=total damage to plant; 0=no damage to plant). The procedure, abridged: as §1
The subject of assay [3] is Echinochloa crus-galli (ECHCG). The assay is described as above. Particulars: Echinochloa crus-galli, 312 h; Rate 250 g/ha; pre-emergence spray; evaluated after 13 days; read-out: Pre-emergence activity ECHCG (100=total damage to plant; 0=no damage to plant). Put shortly: as §1
For assay [4], the system named is Lolium perenne (LOLPE). The description is as above. Conditions: Lolium perenne, 312 h; Rate 250 g/ha; pre-emergence spray; evaluated after 13 days; read-out: Pre-emergence activity LOLPE (100=total damage to plant; 0=no damage to plant). The procedure, abridged:
as §1

Assay [5] concerns Alopecurus myosuroides (ALOMY). As to the kind of experiment: Post-emergence herbicidal activity, glasshouse pot test. Particulars: Alopecurus myosuroides, 312 h, rate 250 g/ha, evaluated after 13 days, glasshouse, read-out: Post-emergence activity ALOMY (100=total damage to plant; 0=no damage to plant). The procedure, abridged:
as §1

The subject of assay [6] is Avena fatua (AVEFA). The description is as above. Particulars: Avena fatua, 312 h, rate 250 g/ha, evaluated after 13 days, glasshouse, read-out: Post-emergence activity AVEFA (100=total damage to plant; 0=no damage to plant). Put shortly: as §1
Assay [7] concerns Echinochloa crus-galli (ECHCG). The description is as above. Conditions: Echinochloa crus-galli, 312 h, rate 250 g/ha, evaluated after 13 days, glasshouse, read-out: Post-emergence activity ECHCG (100=total damage to plant; 0=no damage to plant). The procedure, abridged:
as §1

The subject of assay [8] is Lolium perenne (LOLPE). The assay is described as above. Particulars: Lolium perenne, 312 h, rate 250 g/ha, evaluated after 13 days, glasshouse, read-out: Post-emergence activity LOLPE (100=total damage to plant; 0=no damage to plant). The procedure, abridged:
as §1

The source of these data is US8865623B2, “Herbicidally active cyclic diones and derivatives thereof, processes for their preparation, compositions, and method of controlling weeds” (Syngenta Limited, priority 2009, dated 2014).

Turning to `CCc1ccc(Oc2ccc(C(F)(F)F)cc2Cl)cc1C1=C(O)CC2(CCOCC2)CC1=O` [Example A-271], the pest or weed control at 250 g/ha in assay [1] is 90%; in the assay with Avena fatua (AVEFA) [2] it was 50%; in assay [3], 100%; in the assay with Lolium perenne (LOLPE) [4], 90%; in assay [5], 90%; in the assay with Avena fatua (AVEFA) [6], 90%. Besides, the pest or weed control at 250 g/ha in assay [7] was found to be 100%; in the assay with Lolium perenne (LOLPE) [8], 70%.
Regarding `CCc1ccc(Oc2ncc(C(F)(F)F)cc2Cl)cc1C1=C(O)CC2(CCOCC2)CC1=O` [Example A-272], the pest or weed control at 250 g/ha stood at 100% in assay [1]; 100% in the assay with Avena fatua (AVEFA) [2]; 100% in assay [3]; 100% in the assay on Lolium perenne (LOLPE) [4]; 90% in assay [5]; 90% in the assay with Avena fatua (AVEFA) [6]. Moreover, the pest or weed control at 250 g/ha in assay [7] came out at 100%; in the assay with Lolium perenne (LOLPE) [8], 70%.
As for `CCc1ccc(Oc2ncc(C(F)(F)F)cc2F)cc1C1=C(O)CC2(CCOCC2)CC1=O` [Example A-273], the pest or weed control at 250 g/ha (in assay [1]; in the assay on Avena fatua (AVEFA) [2]; in assay [3]; in the assay with Lolium perenne (LOLPE) [4]; in assay [5]; with Avena fatua (AVEFA) [6]) was 100% in each case. For the same compound, the pest or weed control at 250 g/ha (in assay [7]; in the assay with Lolium perenne (LOLPE) [8]) was 100% throughout.
Turning to `CCc1ccc(Oc2ncc(Cl)cc2F)cc1C1=C(O)CC2(CCOCC2)CC1=O` [Example A-274], the pest or weed control at 250 g/ha (in assay [1]; with Avena fatua (AVEFA) [2]; in assay [3]; with Lolium perenne (LOLPE) [4]; in assay [5]; in the assay on Avena fatua (AVEFA) [6]) was 100% in each case. In addition, the pest or weed control at 250 g/ha (in assay [7]; in the assay on Lolium perenne (LOLPE) [8]) was 100% throughout.
Consider `CCc1ccc(Oc2ncc(Cl)cc2Cl)cc1C1=C(O)CC2(CCOCC2)CC1=O` [Example A-275], for which the pest or weed control at 250 g/ha came out at 100% in assay [1]; 90% in the assay on Avena fatua (AVEFA) [2]; 100% in assay [3]; 100% in the assay with Lolium perenne (LOLPE) [4]; 90% in assay [5]; 100% with Avena fatua (AVEFA) [6]. The pest or weed control at 250 g/ha (in assay [7]; in the assay with Lolium perenne (LOLPE) [8]) was 100% in each case.
As to `CCc1ccc(Oc2ccc([N+](=O)[O-])c(Cl)c2)cc1C1=C(O)CC2(CCOCC2)CC1=O` [Example A-276], the pest or weed control at 250 g/ha was found to be 40% in assay [1]; 10% in the assay on Avena fatua (AVEFA) [2]; 100% in assay [3]; 70% with Lolium perenne (LOLPE) [4]; 60% in assay [5]; 10% with Avena fatua (AVEFA) [6]. The pest or weed control at 250 g/ha was 100% in assay [7] and 40% with Lolium perenne (LOLPE) [8].
Consider `CCc1ccc(Oc2ccc(C#N)c(Cl)c2)cc1C1=C(O)CC2(CCOCC2)CC1=O` [Example A-277], for which the pest or weed control at 250 g/ha in assay [1] worked out at 30%; in the assay with Avena fatua (AVEFA) [2] it was 30%; in assay [3], 100%; with Lolium perenne (LOLPE) [4] it was 100%; in assay [5] it was 30%; with Avena fatua (AVEFA) [6], 80%. The pest or weed control at 250 g/ha (in assay [7]; in the assay with Lolium perenne (LOLPE) [8]) was 100% each time.
Regarding `CCc1ccc(Oc2ccc(C(F)(F)F)c(Cl)c2)cc1C1=C(O)CC2(CCOCC2)CC1=O` [Example A-278], the pest or weed control at 250 g/ha in assay [1] amounted to 60%; with Avena fatua (AVEFA) [2], 70%; in assay [3] it was 0%; in the assay on Lolium perenne (LOLPE) [4], 70%; in assay [5], 100%; in the assay with Avena fatua (AVEFA) [6], 100%. Moreover, the pest or weed control at 250 g/ha (in assay [7]; in the assay with Lolium perenne (LOLPE) [8]) was 100% throughout.
Take `CC1(C)OC(C)(C)C(O)=C(c2cc(Oc3cnc4cc(Cl)ccc4n3)ccc2C2CC2)C1=O` [Example A-279]: the pest or weed control at 250 g/ha amounted to 90% in assay [1]; 100% in the assay with Avena fatua (AVEFA) [2]; 100% in assay [3]; 100% with Lolium perenne (LOLPE) [4]; 100% in assay [5]; 100% in the assay with Avena fatua (AVEFA) [6]. Moreover, the pest or weed control at 250 g/ha (in assay [7]; in the assay on Lolium perenne (LOLPE) [8]) was 100% in each case.
In the case of `CCc1ccc(Oc2ccc(C#N)c(Cl)c2)cc1C1=C(O)CC(C)(C)CC1=O` [Example A-280], the pest or weed control at 250 g/ha in assay [1] came out at 70%; in the assay on Avena fatua (AVEFA) [2], 40%; in assay [3], 100%; with Lolium perenne (LOLPE) [4], 70%; in assay [5], 90%; in the assay on Avena fatua (AVEFA) [6] it was 70%. In addition, the pest or weed control at 250 g/ha in assay [7] was determined as 100%; in the assay on Lolium perenne (LOLPE) [8], 60%.
For `CCc1ccc(Oc2ccc(C(F)(F)F)cc2Cl)cc1C1=C(O)CC(C)(C)CC1=O` [Example A-281], the pest or weed control at 250 g/ha turned out to be 70% in assay [1]; 0% with Avena fatua (AVEFA) [2]; 100% in assay [3]; 80% in the assay with Lolium perenne (LOLPE) [4]; 90% in assay [5]; 80% in the assay on Avena fatua (AVEFA) [6]. Moreover, the pest or weed control at 250 g/ha amounted to 100% in assay [7] and 60% in the assay with Lolium perenne (LOLPE) [8].
For the compound `CCc1ccc(Oc2ccc(C(F)(F)F)cc2Br)cc1C1=C(O)CC(C)(C)CC1=O` [Example A-282], the pest or weed control at 250 g/ha in assay [1] turned out to be 10%; with Avena fatua (AVEFA) [2] it was 10%; in assay [3], 100%; in the assay with Lolium perenne (LOLPE) [4] it was 60%; in assay [5], 70%; with Avena fatua (AVEFA) [6], 60%. In addition, the pest or weed control at 250 g/ha in assay [7] came to 100%; in the assay on Lolium perenne (LOLPE) [8], 40%.
For the compound `CCc1ccc(Oc2ccc(C(F)(F)F)c(Cl)c2)cc1C1=C(O)CC(C)(C)CC1=O` [Example A-283], the pest or weed control at 250 g/ha in assay [1] is 70%; in the assay on Avena fatua (AVEFA) [2] it was 10%; in assay [3], 90%; in the assay with Lolium perenne (LOLPE) [4] it was 60%; in assay [5] it was 80%; with Avena fatua (AVEFA) [6], 90%. Also, the pest or weed control at 250 g/ha (in assay [7]; in the assay with Lolium perenne (LOLPE) [8]) was 90% in each case.
`CCc1ccc(Oc2ccc([N+](=O)[O-])c(Cl)c2)cc1C1=C(O)CC(C)(C)CC1=O` [Example A-284]: the pest or weed control at 250 g/ha was found to be 60% in assay [1]; 0% with Avena fatua (AVEFA) [2]; 100% in assay [3]; 70% with Lolium perenne (LOLPE) [4]; 60% in assay [5]; 0% in the assay with Avena fatua (AVEFA) [6]. In addition, the figures for the pest or weed control at 250 g/ha (in assay [7]; in the assay on Lolium perenne (LOLPE) [8]) were 100% and 60%, respectively.
Consider `CCc1ccc(Oc2ncc(C(F)(F)F)cc2F)cc1C1=C(O)CC(C)(C)CC1=O` [Example A-285], for which the pest or weed control at 250 g/ha was 90% in assay [1]; 70% in the assay on Avena fatua (AVEFA) [2]; 100% in assay [3]; 100% in the assay with Lolium perenne (LOLPE) [4]; 100% in assay [5]; 100% in the assay on Avena fatua (AVEFA) [6]. The pest or weed control at 250 g/ha (in assay [7]; in the assay on Lolium perenne (LOLPE) [8]) was 100% each time.
For `CCc1ccc(Oc2nc3ccccc3s2)cc1C1=C(O)CC(C)(C)CC1=O` [Example A-286], the pest or weed control at 250 g/ha in assay [1] stood at 90%; in the assay on Avena fatua (AVEFA) [2], 40%; in assay [3], 100%; in the assay with Lolium perenne (LOLPE) [4], 100%; in assay [5] it was 100%; in the assay with Avena fatua (AVEFA) [6] it was 90%. In addition, the pest or weed control at 250 g/ha (in assay [7]; in the assay on Lolium perenne (LOLPE) [8]) was 100% in each case.
In the case of `CCc1ccc(Oc2nc3ccc(Cl)cc3s2)cc1C1=C(O)CC(C)(C)CC1=O` [Example A-287], the pest or weed control at 250 g/ha amounted to 100% in assay [1]; 90% in the assay on Avena fatua (AVEFA) [2]; 100% in assay [3]; 100% with Lolium perenne (LOLPE) [4]; 100% in assay [5]; 100% with Avena fatua (AVEFA) [6]. Also, the pest or weed control at 250 g/ha (in assay [7]; in the assay with Lolium perenne (LOLPE) [8]) was 100% each time.
